Measurements as given in patent US9981960B2, “Pyrrolidine compound and application as melanocortin receptor agonist” (MITSUBISHI TANABE PHARMA CORPORATION, priority 2014, dated 2018).

Key:
Human MC1R = biological target: T1, Human MC1R (Homo sapiens, UniProt Q01726); assay: MCR agonist measurement (cAMP measurement), human MC1R agonist activity in human melanoma cell line HBL; type: cell-based; details: HBL cells; for EC50: 37° C. for 30 minutes, intracellular cAMP by fluorescence method; for Human MC1R IA %: Intrinsic Activity, vehicle cAMP = 0%, αMSH at 10^-6 M = 100%
T1 construct: endogenous in cells; host or cells: human melanoma cell line HBL
Procedure: (1) Method for Culturing Cells
Human MC1R agonist activity measurement was carried out by using human melanoma cell line HBL. Culture of HBL: F-10 Nutrient Mixture containing 10% FCS and Penicillin-streptomycin was used in the culture.
(2) cAMP Assay and Data Calculation
Each compound solution having each concentration was mixed with cAMP assay buffer (HBSS (Hank's Balanced Salt Solution) containing 10 mM HEPES and 0.1% BSA), and dispensed into 96 well plate. HBL was suspended in cAMP assay buffer containing 0.5 mM IBMX so that the concentrate became 5×10^4/mL, dispensed into the above 96 well plate, then mixed, left to stand at 37° C. for 30 minutes, and then the intracellular […] concentration was measured by fluorescence method using Envision (ex. 320 nm, em. 590 nm and 665 nm).

human MC4R = human MC4R (Homo sapiens, UniProt P32245); assay: human MC4R agonist activity; type: cell-based
Chain of human MC4R (P32245 whole entry): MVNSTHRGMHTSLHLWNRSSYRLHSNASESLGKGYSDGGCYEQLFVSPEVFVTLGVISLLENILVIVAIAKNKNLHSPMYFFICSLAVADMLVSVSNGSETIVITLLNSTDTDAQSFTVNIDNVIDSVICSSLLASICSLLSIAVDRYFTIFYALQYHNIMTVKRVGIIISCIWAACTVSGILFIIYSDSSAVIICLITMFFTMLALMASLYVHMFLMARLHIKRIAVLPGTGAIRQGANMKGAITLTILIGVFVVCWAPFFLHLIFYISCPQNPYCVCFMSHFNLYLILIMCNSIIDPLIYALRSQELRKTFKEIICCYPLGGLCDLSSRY

T1 sequence (Q01726 whole entry): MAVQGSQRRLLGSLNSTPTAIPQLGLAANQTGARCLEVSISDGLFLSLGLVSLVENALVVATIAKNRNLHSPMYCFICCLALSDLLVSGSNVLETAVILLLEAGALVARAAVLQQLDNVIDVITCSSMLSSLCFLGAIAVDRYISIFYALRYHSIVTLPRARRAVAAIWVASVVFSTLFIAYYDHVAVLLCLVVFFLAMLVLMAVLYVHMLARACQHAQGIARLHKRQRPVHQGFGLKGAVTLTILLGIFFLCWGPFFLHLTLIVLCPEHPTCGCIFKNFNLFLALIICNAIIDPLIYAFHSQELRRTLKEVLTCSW

EC50 (Human MC1R) | Human MC1R IA % (Human MC1R) | EC50 (human MC4R) | Compound
1.7 nM | 102% | 341 nM | COC[C@@H]1C[C@@H](c2ccc(F)cc2N2CCC(C(=O)O)CC2)CN1C(=O)[C@]1(F)CN([C@H]2CC[C@H](OC)CC2)C[C@H]1c1ccc(OC)cc1.Cl.Cl [Example 147, 1-{5-fluoro-2-[(3S,5S)-1-{[(3R,4R)-3-fluoro-1-(trans-4-methoxycyclohexyl)-4-(4-methoxyphenyl)pyrrolidin-3-yl]carbonyl}-5-(methoxymethyl)pyrrolidin-3-yl]phenyl}piperidine-4-carboxylic acid dihydrochloride]
18 nM | 91% | – | COc1ccc([C@@H]2CN(C(C)(C)C)C[C@@]2(F)C(=O)N2CCC(c3ccc(C(F)(F)F)cc3OCCCC(=O)NS(=O)(=O)N(C)C)CC2)cc1.Cl [Example 272, 4-[2-(1-{[(3R,4R)-1-tert-butyl-3-fluoro-4-(4-methoxyphenyl)pyrrolidin-3-yl]carbonyl}piperidin-4-yl)-5-(trifluoromethyl)phenoxy]-N-(dimethylsulfamoyl)butanamide hydrochloride]
13 nM | 79% | – | COc1ccc([C@@H]2CN(C(C)(C)C)C[C@@]2(F)C(=O)N2CCC(c3ccc(C(F)(F)F)cc3OCCCC(=O)NS(C)(=O)=O)CC2)cc1 [Example 273]
7.5 nM | 89% | – | COc1ccc([C@@H]2CN(C(C)(C)C)C[C@@]2(F)C(=O)N2CCC(c3ccc(C(F)(F)F)cc3N3CCC(C(=O)NS(C)(=O)=O)CC3)CC2)cc1 [Example 274]
39 nM | 46% | – | COC[C@H]1CN(C(=O)[C@]2(F)CN(C3CCOCC3)C[C@H]2c2ccc(OC)cc2)C[C@@H]1c1ccc(C(F)(F)F)cc1N1CCC(C#N)CC1.Cl.Cl [Example 278, 1-{2-[(3S,4R)-1-{[(3R,4R)-3-fluoro-4-(4-methoxyphenyl)-1-(tetrahydro-2H-pyran-4-yl)pyrrolidin-3-yl]carbonyl}-4-(methoxymethyl)pyrrolidin-3-yl]-5-(trifluoromethyl)phenyl}piperidine-4-carbonitrile dihydrochloride]
59 nM | 90% | – | COC[C@H]1CN(C(=O)[C@]2(F)CN(C3CCOCC3)C[C@H]2c2ccc(OC)cc2)C[C@@H]1c1ccc(C(F)(F)F)cc1N1CCC(c2nnn[nH]2)CC1.Cl.Cl [Example 279, [(3R,4R)-3-fluoro-4-(4-methoxyphenyl)-1-(tetrahydro-2H-pyran-4-yl)pyrrolidin-3-yl][(3R,4S)-3-(methoxymethyl)-4-{2-[4-(1H-tetrazol-5-yl)piperidin-1-yl]-4-(trifluoromethyl)phenyl}pyrrolidin-1-yl]methanone dihydrochloride]
42 nM | 86% | – | COc1ccc([C@@H]2CN(C(C)(C)C)C[C@@]2(F)C(=O)N2CCC(c3ccc(C(F)(F)F)cc3OCCCc3nnn[nH]3)CC2)cc1.Cl [Example 280, [(3R,4R)-1-tert-butyl-3-fluoro-4-(4-methoxyphenyl)pyrrolidin-3-yl](4-{2-[3-(1H-tetrazol-5-yl)propoxy]-4-(trifluoromethyl)phenyl}piperidin-1-yl)methanone hydrochloride]
19 nM | 72% | – | COc1ccc([C@@H]2CN(C(C)(C)C)C[C@@]2(F)C(=O)N2CCC(c3ccc(C(F)(F)F)cc3N3CCNCC3)CC2)cc1 [Example 281, [(3R,4R)-1-tert-butyl-3-fluoro-4-(4-methoxyphenyl)pyrrolidin-3-yl]{4-[2-(piperazin-1-yl)-4-(trifluoromethyl)phenyl]piperidin-1-yl}methanone]
27 nM | 79% | – | COc1ccc([C@@H]2CN(C(C)(C)C)C[C@@]2(F)C(=O)N2CCC(c3ccc(C(F)(F)F)cc3N3CCN(C(C)=O)CC3)CC2)cc1.Cl.Cl [Example 282, 1-{4-[2-(1-{[(3R,4R)-1-tert-butyl-3-fluoro-4-(4-methoxyphenyl)pyrrolidin-3-yl]carbonyl}piperidin-4-yl)-5-(trifluoromethyl)phenyl]piperazin-1-yl}ethanone dihydrochloride]
14 nM | 81% | – | COc1ccc([C@@H]2CN(C(C)(C)C)C[C@@]2(F)C(=O)N2CCC(c3ccc(C(F)(F)F)cc3N3CCN(C(N)=O)CC3)CC2)cc1.Cl.Cl [Example 284, 4-[2-(1-{[(3R,4R)-1-tert-butyl-3-fluoro-4-(4-methoxyphenyl)pyrrolidin-3-yl]carbonyl}piperidin-4-yl)-5-(trifluoromethyl)phenyl]piperazine-1-carboxamide dihydrochloride]
4.4 nM | 105% | – | COc1ccc([C@@H]2CN(C(C)(C)C)C[C@@]2(F)C(=O)N2CC[C@@H](c3ccc(C(F)(F)F)cc3N3CCC(C(=O)O)CC3)C2)cc1.Cl.Cl [Example 286a, 1-{2-[(3S)-1-{[(3R,4R)-1-tert-butyl-3-fluoro-4-(4-methoxyphenyl)pyrrolidin-3-yl]carbonyl}pyrrolidin-3-yl]-5-(trifluoromethyl)phenyl}piperidine-4-carboxylic acid dihydrochloride]
189 nM | 71% | – | COc1ccc([C@@H]2CN(C(C)(C)C)C[C@@]2(F)C(=O)N2CC[C@H](c3ccc(C(F)(F)F)cc3N3CCC(C(=O)O)CC3)C2)cc1.Cl.Cl [Example 286b, 1-{2-[(3R)-1-{[(3R,4R)-1-tert-butyl-3-fluoro-4-(4-methoxyphenyl)pyrrolidin-3-yl]carbonyl}pyrrolidin-3-yl]-5-(trifluoromethyl)phenyl}piperidine-4-carboxylic acid dihydrochloride]
124 nM | 55% | – | COc1ccc([C@@H]2CN(C3CCOC3)C[C@@]2(F)C(=O)N2CCC(c3ccc(C(F)(F)F)cc3N3CCC(C(=O)O)CC3)CC2)cc1 (stereo partly drawn) [Example 289]
115 nM | 69% | – | COc1ccc([C@@H]2CN(C3CCOC3)C[C@@]2(F)C(=O)N2CCC(c3ccc(C(F)(F)F)cc3N3CCC(C(=O)O)CC3)CC2)cc1 (stereo partly drawn) [Example 290]
31 nM | 91% | – | COc1ccc([C@@H]2CN(C(C)(C)C)C[C@@]2(F)C(=O)N2CCC(c3ccc(C(F)(F)F)cc3OCCCc3noc(=O)[nH]3)CC2)cc1.Cl [Example 295, 3-{3-[2-(1-{[(3R,4R)-1-tert-butyl-3-fluoro-4-(4-methoxyphenyl)pyrrolidin-3-yl]carbonyl}piperidin-4-yl)-5-(trifluoromethyl)phenoxy]propyl}-1,2,4-oxadiazole-5(4H)-one hydrochloride]
0.7 nM | 83% | – | COc1ccc([C@@H]2CN(C3CCCC3)C[C@@]2(F)C(=O)N2C[C@H](c3ccc(C(F)(F)F)cc3N3CCC(C(=O)O)CC3)C[C@H]2CF)cc1 [Example 299]
– | 93% | – | COc1ccc([C@@H]2CN(C3CCCC3)C[C@@]2(F)C(=O)N2C[C@H](c3ccc(C(F)(F)F)cc3N3CCC(C(=O)O)CC3)C[C@H]2CC#N)cc1 [Example 300]
8.7 nM | 89% | – | COc1ccc([C@@H]2CN(CCCC(=O)N(C)C)C[C@@]2(F)C(=O)N2CCC(c3ccc(C(F)(F)F)cc3N3CCC(C(=O)O)CC3)CC2)cc1 [Example 304]
6.8 nM | 96% | – | COC[C@H]1CN(C(=O)[C@]2(F)CN(CC(=O)N3CCCCC3)C[C@H]2c2ccc(OC)cc2)C[C@@H]1c1ccc(C(F)(F)F)cc1N1CCC(C(=O)O)CC1 [Example 306]
30 nM | 79% | – | COc1ccc([C@@H]2CN(C(C)(C)CO)C[C@@]2(F)C(=O)N2CCC(c3ccc(C(F)(F)F)cc3N3CCC(C(=O)O)CC3)CC2)cc1 [Example 320]
23 nM | 67% | – | CCC(=O)N1CCC(N2C[C@@H](c3ccc(OC)cc3)[C@](F)(C(=O)N3C[C@H](COC)[C@@H](c4ccc(C(F)(F)F)cc4N4CCC(C(=O)O)CC4)C3)C2)CC1 [Example 327]
